Experimental data from US20240239895A1, “COMBINATION THERAPY WITH A RAF INHIBITOR AND A PD-1 AXIS INHIBITOR” (Genentech, Inc., priority 2021, published 2024).

How the values were obtained:
[1] = system: BRAF- and NRAS-mutant melanoma, KRAS mutant NSCLC, BRAF mutant CRC xenografts; experiment: mouse xenograft models, monotherapy; type: in vivo
Text: The in vitro antitumor effects of belvarafenib have translated into efficacy in various mouse xenograft models.

[2] = Phase I relative bioavailability and food effect study in healthy subjects; type: in vivo; settings: 200 mg single dose
Description: In another Phase I, single dose, randomized, crossover relative bioavailability and food effect study in healthy subjects, the influence of a formulation change from the Phase I to Phase II tablet on belvarafenib exposure was evaluated. A total of 18 healthy subjects were enrolled in the study and received the following randomized treatments: one 150-mg and one 50-mg Phase I tablet in a fed state, two 100-mg Phase II tablets in a fed state, or two 100-mg Phase II tablets in a fasted state, with a 18-day washout between treatments.

[3] = system: tumor infiltrated CD3+CD8+ T cells; experiment: flow cytometry of tumor infiltrated CD3+CD8+ T cells, K1735 model; type: in vivo, mouse; settings: belvarafenib 15 mg/kg oral QDx21; tumor tissue at end of experiment
Description: Flow cytometry was used for tumor infiltrated CD3+CD8+ T cells analysis using BD FACSCanto™ IL (BD Biosciences) and FlowJo™ v 10.6.2 software (BD Biosciences). At the end of the experiment, tumor tissue, excluding mono and combination therapy groups using belvarafenib 7.5 mg/kg, were collected for evaluation of pharmacodynamics. Tumors were surgically dissected, washed twice with phosphate-buffered saline (PBS), and then chopped into 1 mm3 pieces. The chopped tumor pieces were digested in 7 mL of dissociation medium (RPMI medium with 10% FBS, collagenase type II at 2 mg/mL, collagenase type IV at 2 mg/mL, and DNase I at 1 mg/mL) for 30 minutes at 37° C., and filtered through a 70 μm cell strainer (BD Pharm, USA). The filtered cells were then washed twice with PBS. Remaining red blood cells were lysed using ammonium-chloride-potassium (ACK) solution. The cells, which had dissociated into single cells, were stained with Fe block (anti CD16/32, Ref. 14-0161-82, Invitrogen, USA) at 4° C. for 15 minutes to prevent nonspecific antibody binding. The cells were then stained with appropriate antibodies at 4° C. for 30 minutes. To assess the presence of CD3+CD8+ T cell population, cells were stained with PE Cy7-conjugated anti-CD3e (1:100 dilution) (clone: 145-2C11, Invitrogen, USA) and FITC-conjugated anti-CD8a (1:100 dilution) (clone: 53-6.7, Invitrogen, USA).

[4] = system: phosphorylation of MEK and ERK in the MAPK pathway; experiment: MEK and ERK phosphorylation in cancer cell lines; type: cell-based; settings: BRAF- or RAS-mutant melanoma, NSCLC, and CRC cell lines
[5] = system: K1735 melanoma cells carrying the NRASG13D mutation; experiment: K1735 syngeneic mouse model, tumor growth; type: in vivo
Text: Example 1 evaluated the efficacy of belvarafenib monotherapy, atezolizumab monotherapy, a combination therapy of belvarafenib and atezolizumab in a mutant K1735 subcutaneous mouse model.
The mouse strain was C3H/HeNCrlOri which is widely used for the K1735 syngeneic model. The mice were supplied by Orient Bio Inc., Korea.
The cell line was K1735 and was supplied by the American Type Culture Collection (ATCC). The K1735 cells are melanoma cells carrying the NRASG13D mutation. The cell culture in vitro media was Roswell Park Memorial Institute (RPMI) 10% fetal bovine serum (FBS) and incubation was at 5% C02 and 37° C. For the K1735 syngeneic model, cancer cells (1.5×10^8 cells/10 mL) were mixed with Hank's balanced salt solution (HBSS) and injected subcutaneously at 0.1 mL/head. Seven animals per group were treated with the vehicle (control), belvarafenib monotherapy at 7.5 mg/kg, belvarafenib monotherapy at 15 mg/kg, atezolizumab monotherapy at 10 mg/kg, belvarafenib (7.5 mg/kg) and atezolizumab (10 mg/kg) combination therapy, and belvarafenib (15 mg/kg) and atezolizumab (10 mg/kg) combination therapy. The experiment was done using 1st generation tumor tissue.
Belvarafenib dihydrochloride, 99.6% purity, that was stored at room temperature was used. Dosing was based on active ingredient free base and was corrected for assay and water content. The dosing vehicle was DMSO (5%), cremophore EL (5%), and deionized water (90%). Belvarafenib for dosing was dissolved in the vehicle. Belvarafenib oral doses of 7.5 mg/kg and 15 mg/kg were evaluated as monotherapies and in combination with atezolizumab. Belvarafenib was dose daily for 21 days.
Atezolizumab (TECENTRIQ©) that was stored at 2-8° C. was used. The dosing vehicle was saline and the dosing concentration was 5 mL/kg. An atezolizumab intravenous dose of 10 mg/kg was evaluated as a monotherapy and in combination with 7.5 mg/kg and 15 mg/kg belvarafenib. Atezolizumab was dosed three times a week for 3 weeks.
Tumor size. Tumor size was assessed by digital caliper (MITUTOYO CD-15CPX, MonotaRO Singapore, Japan) twice a week during the dosing period and calculated using the formula for an ellipsoid sphere (V=L×S2/2=mm3, where L=long diameter, and S=short diameter). Tumor size was recorded on the day of the body weight measurement and data was recorded on a tumor volume record sheet.
Relative tumor volume (RTV). RTV(%)=tumor volume/initial tumor volume×100.
Tumor Growth (TG). TG (%)=RTVdayx/RTVday0×100.
Relative tumor growth (RTG). The ratio of mean tumor volume on last measurement day to the mean tumor volume on Day 0.
Inhibition rate (IR). Inhibition of tumor growth was calculated relative to vehicle-treated controls. IR (%)=(1−mean relative tumor weight in treated group/mean relative tumor weight in control group)×100.
Maximum inhibition rate (MIR). MIR was the highest recorded IR (%) among the measured inhibition rate (%).
Statistical analysis of tumor size was performed with GraphPad Prism version 6 (GraphPad software, Inc., USA). Values were expressed as S.E.M. The significance of differences among multiple groups was assessed using a 2-way ANOVA. Post hoc pairwise comparison between groups was tested for significance using Dennett's method.

[6] = system: BRAF- or RAS-mutant melanoma, NSCLC, CRC, and thyroid cancer cell lines; experiment: growth of cancer cell lines in vitro; type: cell-based
[7] = K1735 syngeneic mouse model, body weight and clinical signs; type: in vivo
Description: Body weight. Body weight measurement was performed twice a week during the dosing period.
Relative body weight. Relative body weight (%)=body weight (g)/initial body weight (g)×100.
Maximum weight loss (MWL). MWL was the highest recorded weight loss (%) among the measured weight loss (%).

[8] = belvarafenib 7.5 mg/kg oral QDx21
[9] = belvarafenib 15 mg/kg oral QDx21

With `Cc1ccc2c(Nc3cccc(Cl)c3F)nccc2c1NC(=O)c1csc2c(N)ncnc12` [Belvarafenib, 4-amino-N-(1-((3-chloro-2-fluorophenyl)amino)-6-methylisoquinolin-5-yl)thieno[3,2-d]pyrimidine-7-carboxamide] the “inhibition of tumor growth” value [1] was “dose-dependent inhibition of tumor growth”, the “serious adverse events, adverse events of special interest, deaths” value [2] was “No serious adverse events, adverse events of special interest, or deaths were reported” and the “CD3^+CD8^+ T cells (%)” value [3] was 1.27%. The “inhibition of phosphorylation of MEK and ERK” value [4] was “inhibits phosphorylation of MEK and ERK”, the “MIR / Max Inhib. (maximum inhibition rate)” value [5, 8] was 48.2% and the “MTV21 (mean tumor volume on day 21 of treatment)” value [5, 8] was 2014.8 mm^3. For the same molecule, the “RTG (relative tumor growth)” value [5, 8] was 12.2, the “MIR / Max Inhib. (maximum inhibition rate)” value [5, 9] was 54.7% and the “MTV21 (mean tumor volume on day 21 of treatment)” value [5, 9] was 1816.8 mm^3. The “RTG (relative tumor growth)” value [5, 9] was 11.0, the “IR (Day 21) (inhibition rate, tumor growth inhibition)” value [5, 8] was 48.2% and the “IR (Day 21) (inhibition rate, tumor growth inhibition)” value [5, 9] was 54.7%. The “inhibition of cell line growth” value [6] was “inhibit the growth”, the “MWL / Max Wt. (maximum weight loss)” value [7, 8] was 2.8% and the “MWL / Max Wt. (maximum weight loss)” value [7, 9] was 2.2%.
